Like-named read-outs stand apart in the source and are kept apart here.
Columns and labels:
[1] = biological target: T1, human S1P3 receptor (Homo sapiens, UniProt Q99500); assay: FLIPR assay in T24 cells stably expressing the human S1P3 receptor; assay type: cell-based; conditions: for inhibition at 10 µM: T-24, read-out: S1P3 percent inhibition (in parenthesis)
T1 construct: expressed in transfected cells
Experimental: Another method of determining if a compound is an S1P3 receptor inhibitor is with a FLIPR assay. An example of this method is described in U.S. patent application Ser. No. 11/675,168, the contents of which are incorporated herein by reference. According to that application, compounds may be assessed for their ability to activate or block activation of the human S1P3 receptor in T24 cells stably expressing the human S1P3 receptor. In this assay ten thousand cells/well are plated into 384-well poly-D-lysine coated plates one day prior to use. The growth media for the S1P3 receptor expressing cell line is McCoy's 5A medium supplemented with 10% charcoal-treated fetal bovine serum (FBS), 1% antibiotic-antimycotic and 400 μg/ml geneticin. On the day of the experiment, the cells are washed twice with Hank's Balanced Salt Solution supplemented with 20 mM HEPES (HBSS/Hepes buffer). The cells are then dye loaded with 2 uM Fluo-4 diluted in the HBSS/Hepes buffer with 1.25 mM Probenecid and incubated at 37° C. for 40 minutes. Extracellular dye is removed by washing the cell plates four times prior to placing the plates in the FLIPR (Fluorometric Imaging Plate Reader, Molecular Devices). Ligands are diluted in HBSS/Hepes buffer and prepared in 384-well microplates. The positive control, S1P, is diluted in HBSS/Hepes buffer with 4 mg/ml fatty acid free bovine serum albumin. The FLIPR transfers 12.5 μl from the ligand microplate to the cell plate and takes fluorescent measurements for 75 seconds, taking readings every second, and then for 2.5 minutes, taking readings every 10 seconds. Drugs are tested over the concentration range of to 0.61 nM to 10,000 nM. Data for Ca^+2 responses is obtained in arbitrary fluorescence units and not translated into Ca^+2 concentrations. IC50 values are determined through a […] analysis using the Levenburg Marquardt algorithm.
Examples of such compounds include the following. […] The EC50 and IC50 values expressed in the following table were obtained in the FLIPR assay described above. EC50 or IC50 values are stated first, followed by percent efficacy or percent inhibition stated in parenthesis. In this table and the next, percent efficacy is defined as percent of receptor activity induced by a test compound at the highest dose tested (10 μM) relative to the receptor activity induced by 5 nM sphingosine-1-phosphate, and percent inhibition is defined as percent of receptor activity induced by 5 nM sphingosine-1-phosphate that is inhibited by a test compound at the highest dose tested (10 μM). “NA” means that no activity was detected at highest dose tested; “ND” means not determined.
The IC50 values expressed below were obtained in the FLIPR assay described above. IC50 values are stated first (except as otherwise noted), followed by percent efficacy or percent inhibition in parenthesis.

[2] = biological target: S1P1 receptor (Homo sapiens, UniProt P21453); assay: FLIPR assay (Ca2+ response), S1P1 receptor; assay type: cell-based
Chain of S1P1 receptor (P21453 whole entry): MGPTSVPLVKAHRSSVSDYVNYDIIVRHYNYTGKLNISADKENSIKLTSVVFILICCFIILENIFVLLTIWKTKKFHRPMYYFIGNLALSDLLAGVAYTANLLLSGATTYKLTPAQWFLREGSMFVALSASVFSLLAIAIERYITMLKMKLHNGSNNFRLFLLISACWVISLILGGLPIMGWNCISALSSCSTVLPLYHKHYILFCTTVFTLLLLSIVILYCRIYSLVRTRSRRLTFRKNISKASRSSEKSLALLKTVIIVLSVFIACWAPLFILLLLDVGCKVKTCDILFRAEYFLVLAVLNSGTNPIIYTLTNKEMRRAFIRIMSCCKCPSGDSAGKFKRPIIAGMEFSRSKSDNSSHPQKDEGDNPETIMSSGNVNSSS

[3] = FLIPR, table of additional selective S1P3 inhibitors, read-out: S1P3 (IC50)
[4] = percent of activity induced by 5 nM sphingosine-1-phosphate inhibited at 10 μM, table of additional selective S1P3 inhibitors
[5] = tested 0.61 nM to 10,000 nM, NA = no activity detected at highest dose tested, read-out: S1P1 (EC50)
[6] = FLIPR, values in nM, read-out: S1P3 (IC50)
[7] = percent of activity induced by 5 nM sphingosine-1-phosphate inhibited at highest dose tested (10 μM)
[8] = FLIPR, values given in μM, read-out: S1P3 (IC50)

T1 sequence (Q99500 whole entry): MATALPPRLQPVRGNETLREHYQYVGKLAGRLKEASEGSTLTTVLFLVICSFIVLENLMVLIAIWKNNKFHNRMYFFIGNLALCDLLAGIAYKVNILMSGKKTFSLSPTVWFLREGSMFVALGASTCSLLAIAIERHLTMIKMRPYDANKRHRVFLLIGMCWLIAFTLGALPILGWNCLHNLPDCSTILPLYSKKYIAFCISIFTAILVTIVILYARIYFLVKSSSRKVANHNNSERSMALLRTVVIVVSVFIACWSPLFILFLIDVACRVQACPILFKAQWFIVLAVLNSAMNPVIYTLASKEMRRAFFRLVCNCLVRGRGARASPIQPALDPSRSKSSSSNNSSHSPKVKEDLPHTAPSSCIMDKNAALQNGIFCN

SMILES | inhibition at 10 µM [1, 4] [%] | inhibition at 10 µM [1, 7] [%] | IC50 [1, 8] [nM] | also measured
O=C(NCc1ccc(F)c(F)c1)c1c(C2CCCC2)n(Cc2ccccn2)c2ccc(O)cc12 | 99 | – | – | IC50 [1, 3]: 17 nM
CCc1ccc(-c2ccc(CNCCCP(=O)(O)O)nc2-c2ccccc2)cc1 [Compound 148] | – | 98 | – | EC50 [2, 5]: 170 nM; IC50 [1, 6]: 319 nM
CCCOc1ccc2c(C(=O)NCc3ccc(F)c(F)c3)c(C(C)C)n(Cc3ccccc3)c2c1 | 100 | – | – | IC50 [1]: 5 nM
CCOc1ccc2c(C(=O)NCc3ccc(F)c(F)c3)c(C(C)C)n(Cc3ccccc3)c2c1 | 100 | – | – | IC50 [1]: 19 nM
Cc1ccc(-c2ccc(COCCCP(=O)(O)O)nc2-c2ccccc2)cc1 [Compound 156] | – | 11 | 1900 | –
Cc1ccc(-c2ccc(CNCCCP(=O)(O)O)nc2-c2ccccc2)cc1 [Compound 147] | – | 98 | – | EC50 [2, 5]: 121 nM; IC50 [1, 6]: 231 nM
CCc1ccc(-c2ccc(COCCCP(=O)(O)O)nc2-c2ccccc2)cc1 [Compound 155] | – | 27 | 4000 | –
CC(C)Oc1ccc2c(C(=O)NCc3ccc(F)c(F)c3)c(C(C)C)n(Cc3ccccc3)c2c1 | 100 | – | – | IC50 [1]: 6 nM
CCc1ccc(-c2ccc(CNCCCCP(=O)(O)O)nc2-c2ccccc2)cc1 [Compound 153] | – | 30 | – | –
CCCc1ccc(-c2ccc(CNCCCP(=O)(O)O)nc2-c2ccccc2)cc1 [Compound 154] | – | 98 | – | EC50 [2, 5]: 114 nM; IC50 [1, 6]: 319 nM
O=C(NCc1ccc(F)c(F)c1)c1c(C2CCCC2)n(Cc2ccccc2)c2ccc(O)cc12 | 100 | – | – | IC50 [1, 3]: 31 nM
CC(C)c1c(C(=O)NCc2ccc(F)c(F)c2)c2ccccc2n1Cc1ccccc1 | 100 | – | – | IC50 [1]: 209 nM
O=P(O)(O)CCCNCc1ccc(-c2ccc(C(F)(F)F)cc2)c(-c2ccccc2)n1 [Compound 150] | – | 95 | – | –
CCc1ccc(-c2ccc(CNCCCP(=O)(O)O)nc2-c2ccncc2)cc1 [Compound 151] | – | 95 | 1100 | –
CC(C)c1c(C(=O)NCc2ccc(F)c(F)c2)c2cc(O)ccc2n1Cc1ccccc1 | 98 | – | – | IC50 [1]: 35 nM
O=P(O)(O)CCCNCc1ccc(-c2ccccc2)c(-c2ccccc2)n1 [Compound 146] | – | 83 | 1600 | –
CCc1ccc(-c2ccc(CNCCP(=O)(O)O)nc2-c2ccccc2)cc1 [Compound 149] | – | 99 | 1800 | –
CCc1ccc(-c2ccc(CNCCCP(=O)(O)O)nc2-c2ccccc2)cc1 [drawing 165] | – | – | – | EC50 ([2]; table of additional selective S1P3 inhibitors, read-out: S1P1 EC50 (noted in IC50 column)): 170 nM; IC50 [1, 3]: 319 nM; S1P3 percent inhibition (in parenthesis) [1, 4]: 98%
CCc1ccc(-c2ccc(CNCCP(=O)(O)O)nc2-c2ccncc2)cc1 [Compound 152] | – | 68 | 1800 | –

Source: patent publication US20110009453A1, “S1P3 RECEPTOR INHIBITORS FOR TREATING INFLAMMATION” (priority 2008, published 2011)
